Tests used:
NK-YS (IL-2 2.5 ng/mL) [1] = assay: drug sensitivity score (DSS) (DSS units); higher = more sensitive; extreme values may be limits of the assay; conditions: 72 h
SNK-6 (IL-2 2.5 ng/mL) [2] = assay: as above; conditions: 72 h
[3] = tested on: normal primary NK cells, pool 1 (3 donors) (IL-2 2.5 ng/mL); assay: as above; conditions: 72 h
KAI3 (IL-2 2.5 ng/mL) [4] = assay: as above; conditions: 72 h
[5] = tested on: normal primary NK cells, pool 2 (3 donors) (IL-2 2.5 ng/mL); assay: as above; conditions: 72 h
[6] = tested on: normal primary NK cells, pool 3 (3 donors) (IL-2 2.5 ng/mL); assay: as above; conditions: 72 h
KHYG-1 (IL-2 2.5 ng/mL) [7] = assay: as above; conditions: 72 h
[8] = tested on: normal primary NK cells, pool 1 (3 donors), resting (IL-2 0 ng/mL); assay: as above; conditions: 72 h
DERL-7 (IL-2 2.5 ng/mL) [9] = assay: as above; conditions: 72 h
IMC-1 (IL-2 20 ng/mL) [10] = assay: as above; conditions: 72 h
YT (IL-2 2.5 ng/mL) [11] = assay: as above; conditions: 72 h
NKL (IL-2 2.5 ng/mL) [12] = assay: as above; conditions: 72 h
NK-92 (IL-2 2.5 ng/mL) [13] = assay: as above; conditions: 72 h
NK-YS (IL-2 2.5 ng/mL) [14] = assay: percent inhibition of viability; higher = more inhibition; conditions: 72 h
SNK-6 (IL-2 2.5 ng/mL) [15] = assay: as above; conditions: 72 h
[16] = tested on: normal primary NK cells, pool 1 (3 donors) (IL-2 2.5 ng/mL); assay: as above; conditions: 72 h
KAI3 (IL-2 2.5 ng/mL) [17] = assay: as above; conditions: 72 h
[18] = tested on: normal primary NK cells, pool 2 (3 donors) (IL-2 2.5 ng/mL); assay: as above; conditions: 72 h
[19] = tested on: normal primary NK cells, pool 3 (3 donors) (IL-2 2.5 ng/mL); assay: as above; conditions: 72 h
KHYG-1 (IL-2 2.5 ng/mL) [20] = assay: as above; conditions: 72 h
[21] = tested on: normal primary NK cells, pool 1 (3 donors), resting (IL-2 0 ng/mL); assay: as above; conditions: 72 h
DERL-7 (IL-2 2.5 ng/mL) [22] = assay: as above; conditions: 72 h
IMC-1 (IL-2 20 ng/mL) [23] = assay: as above; conditions: 72 h
YT (IL-2 2.5 ng/mL) [24] = assay: as above; conditions: 72 h
NKL (IL-2 2.5 ng/mL) [25] = assay: as above; conditions: 72 h
NK-92 (IL-2 2.5 ng/mL) [26] = assay: as above; conditions: 72 h
[27] = tested on: normal NK cells expanded with K562-aAPC; assay: as above; conditions: 72 h, IL-2 2.5 ng/mL
Method: (§1)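 Drug sensitivity and resistance testing on K562-aAPC-expanded normal NK cells: 5 concentrations (10-fold steps over a 10,000-fold range), 72 h at 37 °C, viability by CellTiter-Glo normalised to DMSO and benzethonium chloride controls; DSS from the fitted curve.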

[28] = tested on: normal NK cells expanded with K562-aAPC; assay: drug sensitivity score (DSS) (DSS units); higher = more sensitive; extreme values may be limits of the assay; conditions: 72 h; IL-2 2.5 ng/mL
Method: as §1

Cc1nc(N)sc1-c1ccnc(Nc2ccc(N3CCOCC3)cc2)n1 [CYC-116] (max concentration tested 10000 nM)
Conditions | drug sensitivity score
DERL-7 (IL-2 2.5 ng/mL) [9] | 12.4
IMC-1 (IL-2 20 ng/mL) [10] | 9.98
KAI3 (IL-2 2.5 ng/mL) [4] | 10.1
KHYG-1 (IL-2 2.5 ng/mL) [7] | 14.2
NK-92 (IL-2 2.5 ng/mL) [13] | 8.76
NK-YS (IL-2 2.5 ng/mL) [1] | 14.1
NKL (IL-2 2.5 ng/mL) [12] | 9.96
SNK-6 (IL-2 2.5 ng/mL) [2] | 16
YT (IL-2 2.5 ng/mL) [11] | 9.36
[3] | 6.12
[5] | 6.33
[6] | 4.4
[8] | 0.44
[28] | 11.5

percent inhibition of viability [%]
Conditions | 1 nM | 10 nM | 100 nM | 1000 nM | 10000 nM
DERL-7 (IL-2 2.5 ng/mL) [22] | -3.32 | -3.55 | 6.03 | 60.9 | 84.2
IMC-1 (IL-2 20 ng/mL) [23] | -0.53 | -4.65 | 3.54 | 44.8 | 83.8
KAI3 (IL-2 2.5 ng/mL) [17] | -1.55 | -6.85 | 1.16 | 39.8 | 89.7
KHYG-1 (IL-2 2.5 ng/mL) [20] | -0.11 | -0.55 | 5.34 | 70.7 | 106
NK-92 (IL-2 2.5 ng/mL) [26] | -10.5 | -10.4 | 3.17 | 39.8 | 72.8
NK-YS (IL-2 2.5 ng/mL) [14] | -2.66 | -0.98 | 6.79 | 70.6 | 70.8
NKL (IL-2 2.5 ng/mL) [25] | -16 | -8.68 | -5.36 | 42.6 | 83.9
SNK-6 (IL-2 2.5 ng/mL) [15] | 0.9 | -6.56 | 15.3 | 73.9 | 72.3
YT (IL-2 2.5 ng/mL) [24] | 0.75 | 1.77 | 4.66 | 29.5 | 94.7
[16] | -7.14 | -2.39 | -10.8 | 13.2 | 71.7
[18] | -11.2 | -13.2 | -3.79 | 16.1 | 68.8
[19] | -12.5 | -8.65 | 4.23 | 3.35 | 71.4
[21] | -4.6 | 6.4 | -9.95 | -18.7 | 23.6
[27] | -2.89 | -0.2 | 2.84 | 57.5 | 82

CCCNC(=O)Nc1ccc(Oc2ncnc3cc(OC)c(OC)cc23)cc1Cl [KRN-633] (max concentration tested 2500 nM)
Conditions | drug sensitivity score
DERL-7 (IL-2 2.5 ng/mL) [9] | 0
IMC-1 (IL-2 20 ng/mL) [10] | 0
KAI3 (IL-2 2.5 ng/mL) [4] | 2.05
KHYG-1 (IL-2 2.5 ng/mL) [7] | 0
NK-92 (IL-2 2.5 ng/mL) [13] | 2.65
NK-YS (IL-2 2.5 ng/mL) [1] | 0.34
NKL (IL-2 2.5 ng/mL) [12] | 5.19
SNK-6 (IL-2 2.5 ng/mL) [2] | 0
YT (IL-2 2.5 ng/mL) [11] | 0.73
[3] | 0
[5] | 0
[6] | 0
[8] | 0
[28] | 0

percent inhibition of viability [%]
Conditions | 0.25 nM | 2.5 nM | 25 nM | 250 nM | 2500 nM
DERL-7 (IL-2 2.5 ng/mL) [22] | -3.34 | 5.83 | -0.63 | -4.25 | 1.83
IMC-1 (IL-2 20 ng/mL) [23] | -4.82 | -0.52 | -0.33 | -1.22 | 4.98
KAI3 (IL-2 2.5 ng/mL) [17] | 2.52 | -4.37 | -1.43 | 15 | 20.2
KHYG-1 (IL-2 2.5 ng/mL) [20] | -7.51 | -5.95 | -2.77 | 2.64 | 8.1
NK-92 (IL-2 2.5 ng/mL) [26] | -15.5 | -4.32 | 5.74 | 16.5 | 24.4
NK-YS (IL-2 2.5 ng/mL) [14] | -5.16 | -9.39 | -4.94 | -0.21 | 16.8
NKL (IL-2 2.5 ng/mL) [25] | -1.85 | 1.84 | 11.4 | 24.8 | 35.1
SNK-6 (IL-2 2.5 ng/mL) [15] | 0.67 | -10.6 | -7.54 | -16.4 | -0.64
YT (IL-2 2.5 ng/mL) [24] | -4.93 | -5.67 | -0.27 | 4.17 | 16.1
[16] | 0.25 | 12.5 | 7.25 | 8.57 | 1.55
[18] | -10.4 | 4.55 | 1.17 | -2.44 | 3.9
[19] | -5.17 | 5.1 | -2.11 | -6.67 | -1.34
[21] | -6.06 | 5.96 | 3.62 | 7.14 | -4.86
[27] | -6.27 | -2.98 | -3.15 | 2.74 | 8.42

Cc1nc(Nc2n[nH]c3c2CN(C(=O)N[C@H](CN(C)C)c2ccccc2)C3(C)C)c2sccc2n1 (max concentration tested 10000 nM)
Conditions | drug sensitivity score
DERL-7 (IL-2 2.5 ng/mL) [9] | 24.7
IMC-1 (IL-2 20 ng/mL) [10] | 41.6
KAI3 (IL-2 2.5 ng/mL) [4] | 18.1
KHYG-1 (IL-2 2.5 ng/mL) [7] | 29.5
NK-92 (IL-2 2.5 ng/mL) [13] | 15.2
NK-YS (IL-2 2.5 ng/mL) [1] | 23
NKL (IL-2 2.5 ng/mL) [12] | 14.4
SNK-6 (IL-2 2.5 ng/mL) [2] | 8.41
YT (IL-2 2.5 ng/mL) [11] | 17.5
[3] | 9.34
[5] | 13.5
[6] | 8.84
[8] | 9.24
[28] | 11.5

percent inhibition of viability [%]
Conditions | 1 nM | 10 nM | 100 nM | 1000 nM | 10000 nM
DERL-7 (IL-2 2.5 ng/mL) [22] | 5.19 | 43.4 | 60.3 | 59.5 | 100
IMC-1 (IL-2 20 ng/mL) [23] | -7.89 | 94 | 100 | 100 | 101
KAI3 (IL-2 2.5 ng/mL) [17] | 9.34 | 25.2 | 38.2 | 52.7 | 103
KHYG-1 (IL-2 2.5 ng/mL) [20] | 3.44 | 16.8 | 81.4 | 96.4 | 106
NK-92 (IL-2 2.5 ng/mL) [26] | 2.81 | 5.29 | 27.2 | 59.5 | 105
NK-YS (IL-2 2.5 ng/mL) [14] | 0.35 | 42.8 | 54.1 | 57.7 | 101
NKL (IL-2 2.5 ng/mL) [25] | -10.4 | 9.99 | 31.3 | 50.3 | 103
SNK-6 (IL-2 2.5 ng/mL) [15] | -2.61 | 16.3 | 16 | 31.2 | 87.1
YT (IL-2 2.5 ng/mL) [24] | 0.99 | 13.6 | 41.7 | 56 | 104
[16] | 5.07 | 3.65 | 18.4 | 34.4 | 98.8
[18] | -7.71 | 9.61 | 27.4 | 49.4 | 98.1
[19] | -6.36 | 3.67 | 21.6 | 29.7 | 98.9
[21] | 5.47 | -19.5 | 8.53 | 35.1 | 92.2
[27] | 4.54 | 6.07 | 22.4 | 41.8 | 101

— the supplement of paper PMC5908809
